{"source": "paper PMC9120017", "about": "“Inhibition mechanism of the chloride channel TMEM16A by the pore blocker 1PBC” (Nature Communications, 2022)", "target": "T1, mouse TMEM16A mutant I512A (Mus musculus, UniProt Q8BHY3, I512A)", "T1 construct": "expressed in transfected cells; host or cells: HEK293T", "T1 sequence (Q8BHY3 1-960 I512A)": "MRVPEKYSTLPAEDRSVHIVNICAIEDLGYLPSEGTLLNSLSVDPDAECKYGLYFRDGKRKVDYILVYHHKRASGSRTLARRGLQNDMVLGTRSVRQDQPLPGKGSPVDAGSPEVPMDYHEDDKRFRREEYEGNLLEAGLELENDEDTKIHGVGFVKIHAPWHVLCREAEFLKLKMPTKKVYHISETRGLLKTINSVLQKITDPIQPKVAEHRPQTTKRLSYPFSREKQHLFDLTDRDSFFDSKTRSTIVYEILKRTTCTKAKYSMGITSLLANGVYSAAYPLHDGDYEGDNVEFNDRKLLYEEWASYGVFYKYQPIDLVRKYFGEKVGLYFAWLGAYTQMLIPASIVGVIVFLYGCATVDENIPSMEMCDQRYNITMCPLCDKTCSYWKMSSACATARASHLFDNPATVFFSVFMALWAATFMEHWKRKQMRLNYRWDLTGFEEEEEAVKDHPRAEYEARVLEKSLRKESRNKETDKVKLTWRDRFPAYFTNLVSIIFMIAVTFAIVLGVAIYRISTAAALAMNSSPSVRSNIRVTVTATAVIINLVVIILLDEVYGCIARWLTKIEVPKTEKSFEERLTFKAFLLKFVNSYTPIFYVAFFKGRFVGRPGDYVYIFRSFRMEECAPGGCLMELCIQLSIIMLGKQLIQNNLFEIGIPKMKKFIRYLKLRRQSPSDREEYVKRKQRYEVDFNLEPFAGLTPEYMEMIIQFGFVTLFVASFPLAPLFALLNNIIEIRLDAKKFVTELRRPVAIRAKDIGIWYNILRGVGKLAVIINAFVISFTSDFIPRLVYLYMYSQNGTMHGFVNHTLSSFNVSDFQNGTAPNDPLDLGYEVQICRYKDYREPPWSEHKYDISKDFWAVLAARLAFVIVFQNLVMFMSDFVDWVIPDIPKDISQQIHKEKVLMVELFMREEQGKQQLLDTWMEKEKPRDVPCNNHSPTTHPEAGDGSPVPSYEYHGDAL", "assay": "Inside-out patch recording of 1PBC block, mutant I512A", "format": "cell-based", "settings": "for remaining activity at 30 µM: 1PBC 30; for remaining activity at 30 µM / remaining activity at 100 µM: read-out: fraction of unblocked current; for remaining activity at 100 µM: 1PBC 100", "description": "HEK293T cells (ATCC CRL-1573) were maintained in Dulbecco’s modified Eagle’s medium (DMEM; Sigma-Aldrich) supplemented with 10 U ml^−1 penicillin, 0.1 mg ml^−1 streptomycin (Sigma-Aldrich), 2 mM L-glutamine (Sigma-Aldrich), and 10% FBS (Sigma-Aldrich) in a humidified atmosphere containing 5% CO2 at 37 °C. HEK293S GnTI^− cells (ATCC CRL-3022) were maintained in HyClone HyCell TransFx-H medium (GE Healthcare) supplemented with 10 U ml^−1 penicillin, 0.1 mg ml^−1 streptomycin, 4 mM L-glutamine, 0.15% poloxamer 188 (Sigma-Aldrich), and 1% FBS in an atmosphere containing 5% CO2 at 185 rpm at 37 °C. The ac splice variant of mouse TMEM16A (UniProt ID: Q8BHY3), mouse TMEM16B (UniProt ID: Q8CFW1), or mouse TMEM16F (UniProt ID: Q6P9J9) bearing a 3C cleavage site, a Venus YFP, a Myc tag, and a Streptavidin-binding peptide (SBP) downstream of the open reading frame in a modified pcDNA3.1 vector (Invitrogen) were used as described previously[21],[31]. Mutations were introduced using a modified QuikChange method[58] and were verified by sequencing.\nHEK293T cells were transfected with 3–4 μg DNA per 6 cm Petri dish using the calcium phosphate co-precipitation method and were used within 24–96 h after transfection. Recordings were performed on inside-out patches excised from HEK293T cells expressing the construct of interest. Patch pipettes were pulled from borosilicate glass capillaries (O.D. 1.5 mm, I.D. 0.86 mm, Sutter Instrument) and were fire-polished with a microforge (Narishige) before use. Pipette resistance was typically 3–8 MΩ when filled with the recording solutions detailed below. Seal resistance was typically 4 GΩ or higher. Voltage-clamp recordings were made using Axopatch 200B, Digidata 1550, and Clampex 10.7 (Molecular Devices). Analog signals were filtered with the in-built 4-pole Bessel filter at 10 kHz and were digitized at 20 kHz. Solution exchange was achieved using a gravity-fed system through a theta glass pipette mounted on an ultra-fast piezo-driven stepper (Siskiyou). […] All recordings were performed at 20 °C.\nA symmetrical ionic condition was used throughout. Stock solution with Ca^2+-EGTA contained 150 mM NaCl, 5.99 mM Ca(OH)2, 5 mM EGTA, and 10 mM HEPES at pH 7.40. Stock solution with EGTA contained 150 mM NaCl, 5 mM EGTA, and 10 mM HEPES at pH 7.40. Free Ca^2+ concentrations were adjusted by mixing the stock solutions at the required ratios calculated using the WEBMAXC program (http://web.stanford.edu/~cpatton/webmaxcS.htm). Patch pipettes were filled with the stock solution with Ca^2+-EGTA, which has a free Ca^2+ concentration of 1 mM. 1PBC (ChemBridge) stock was reconstituted in anhydrous DMSO (Sigma-Aldrich) at 100 mM and stored at −20 °C. Working solutions with 1PBC were prepared by serial dilution. Unless otherwise stated, experiments were performed at a saturating Ca^2+ concentration as shown in Supplementary Table 1 and the primary data were corrected for current rundown as described previously[21],[25].\nConcentration-response relations, obtained from the ratio of the I-V plots before and after the application of the blocker, were fitted to the Hill equation,1 I/Imax=1/1+IC50/[blocker]^h where I/Imax is the normalized current responses, IC50 defines the concentration at which inhibition is at its half-maximum, and h is the Hill coefficient.", "note": "Like-named read-outs stand apart in the source and are kept apart here."}
{"smiles": "N#Cc1c(C(F)(F)F)cc(O)n2c1nc1ccccc12", "note": "[1PBC]", "values": [{"measurement": "remaining activity at 30 µM", "setting": "-60 mV", "result": 62.3, "unit": "%"}, {"measurement": "remaining activity at 30 µM", "setting": "-80 mV", "result": 65.6, "unit": "%"}, {"measurement": "remaining activity at 30 µM", "setting": "-100 mV", "result": 68.2, "unit": "%"}, {"measurement": "remaining activity at 30 µM", "setting": "-120 mV", "result": 70.8, "unit": "%"}, {"measurement": "remaining activity at 30 µM", "setting": "-140 mV", "result": 72, "unit": "%"}, {"measurement": "remaining activity at 100 µM", "setting": "0 mV", "result": 23.3, "unit": "%"}, {"measurement": "remaining activity at 100 µM", "setting": "20 mV", "result": 19.1, "unit": "%"}, {"measurement": "remaining activity at 100 µM", "setting": "40 mV", "result": 18.1, "unit": "%"}, {"measurement": "remaining activity at 100 µM", "setting": "60 mV", "result": 15.6, "unit": "%"}, {"measurement": "remaining activity at 100 µM", "setting": "80 mV", "result": 14, "unit": "%"}, {"measurement": "remaining activity at 100 µM", "setting": "100 mV", "result": 13.1, "unit": "%"}, {"measurement": "remaining activity at 100 µM", "setting": "120 mV", "result": 12.2, "unit": "%"}, {"measurement": "remaining activity at 100 µM", "setting": "140 mV", "result": 12.1, "unit": "%"}, {"measurement": "remaining activity at 100 µM", "setting": "-20 mV", "result": 27.5, "unit": "%"}, {"measurement": "remaining activity at 100 µM", "setting": "-40 mV", "result": 29.4, "unit": "%"}, {"measurement": "remaining activity at 100 µM", "setting": "-60 mV", "result": 32.8, "unit": "%"}, {"measurement": "remaining activity at 100 µM", "setting": "-80 mV", "result": 36, "unit": "%"}, {"measurement": "remaining activity at 100 µM", "setting": "-100 mV", "result": 39.7, "unit": "%"}, {"measurement": "remaining activity at 100 µM", "setting": "-120 mV", "result": 42.4, "unit": "%"}, {"measurement": "remaining activity at 100 µM", "setting": "-140 mV", "result": 45.3, "unit": "%"}, {"measurement": "IC50", "setting": "20 mV, 2 µM Ca2+", "result": 25.5, "unit": "µM"}, {"measurement": "IC50", "setting": "40 mV, 2 µM Ca2+", "result": 21.8, "unit": "µM"}, {"measurement": "IC50", "setting": "60 mV, 2 µM Ca2+", "result": 19, "unit": "µM"}, {"measurement": "log-fold IC50 (change of mutant vs WT)", "setting": "80 mV", "result": 0.8662}, {"measurement": "IC50", "setting": "80 mV, 2 µM Ca2+", "result": 17, "unit": "µM"}, {"measurement": "IC50", "setting": "100 mV, 2 µM Ca2+", "result": 15.9, "unit": "µM"}, {"measurement": "IC50", "setting": "120 mV, 2 µM Ca2+", "result": 15.8, "unit": "µM"}, {"measurement": "IC50", "setting": "140 mV, 2 µM Ca2+", "result": 16.6, "unit": "µM"}, {"measurement": "IC50", "setting": "-20 mV, 2 µM Ca2+", "result": 37.1, "unit": "µM"}, {"measurement": "IC50", "setting": "-40 mV, 2 µM Ca2+", "result": 42.9, "unit": "µM"}, {"measurement": "IC50", "setting": "-60 mV, 2 µM Ca2+", "result": 50.1, "unit": "µM"}, {"measurement": "IC50", "setting": "-80 mV, 2 µM Ca2+", "result": 57.9, "unit": "µM"}, {"measurement": "IC50", "setting": "-100 mV, 2 µM Ca2+", "result": 66.1, "unit": "µM"}, {"measurement": "IC50", "setting": "-120 mV, 2 µM Ca2+", "result": 73.6, "unit": "µM"}, {"measurement": "IC50", "setting": "-140 mV, 2 µM Ca2+", "result": 80.9, "unit": "µM"}, {"measurement": "IC50", "setting": "I512A, V 0 mV", "result": 30.7, "unit": "µM"}, {"measurement": "IC50", "setting": "I512A, V 20 mV", "result": 25.5, "unit": "µM"}, {"measurement": "IC50", "setting": "I512A, V 40 mV", "result": 21.8, "unit": "µM"}, {"measurement": "IC50", "setting": "I512A, V 60 mV", "result": 19, "unit": "µM"}, {"measurement": "IC50", "setting": "I512A, V 80 mV", "result": 17, "unit": "µM"}, {"measurement": "IC50", "setting": "I512A, V 100 mV", "result": 15.9, "unit": "µM"}, {"measurement": "IC50", "setting": "I512A, V 120 mV", "result": 15.8, "unit": "µM"}, {"measurement": "IC50", "setting": "I512A, V 140 mV", "result": 16.6, "unit": "µM"}, {"measurement": "IC50", "setting": "I512A, V -20 mV", "result": 37.1, "unit": "µM"}, {"measurement": "IC50", "setting": "I512A, V -40 mV", "result": 42.9, "unit": "µM"}, {"measurement": "IC50", "setting": "I512A, V -60 mV", "result": 50.1, "unit": "µM"}, {"measurement": "IC50", "setting": "I512A, V -80 mV", "result": 57.9, "unit": "µM"}, {"measurement": "IC50", "setting": "I512A, V -100 mV", "result": 66.1, "unit": "µM"}, {"measurement": "IC50", "setting": "I512A, V -120 mV", "result": 73.6, "unit": "µM"}, {"measurement": "IC50", "setting": "I512A, V -140 mV", "result": 80.9, "unit": "µM"}]}
